Assay results as given in PMC9000719, “Design, Synthesis and Bioactivity Evaluation of Coumarin–BMT Hybrids as New Acetylcholinesterase Inhibitors” (Molecules, 2022).
pKi: −log10 of the molar value. Several values for one entry are separate records, joined by “and”; a condition that tells them apart may be missing. Equal values may be shown once. Entries after “also recorded” stand apart in the source; their conditions may differ. Marks after values point to notes of the source that are not given here.

Columns and labels:
Format in all cases: biochemical
[1] = biological target: T1, Acetylcholinesterase (AChE, E.C. 3.1.1.7, from electric eel) (Electrophorus electricus, UniProt O42275); test: Crude screening on AChE inhibition (Ellman method); details: 2 μM compounds; means ± SEM of at least three independent experiments; normalized as percentage of control
T1 construct: purchased Sigma Aldrich
T1 sequence (O42275 24-633): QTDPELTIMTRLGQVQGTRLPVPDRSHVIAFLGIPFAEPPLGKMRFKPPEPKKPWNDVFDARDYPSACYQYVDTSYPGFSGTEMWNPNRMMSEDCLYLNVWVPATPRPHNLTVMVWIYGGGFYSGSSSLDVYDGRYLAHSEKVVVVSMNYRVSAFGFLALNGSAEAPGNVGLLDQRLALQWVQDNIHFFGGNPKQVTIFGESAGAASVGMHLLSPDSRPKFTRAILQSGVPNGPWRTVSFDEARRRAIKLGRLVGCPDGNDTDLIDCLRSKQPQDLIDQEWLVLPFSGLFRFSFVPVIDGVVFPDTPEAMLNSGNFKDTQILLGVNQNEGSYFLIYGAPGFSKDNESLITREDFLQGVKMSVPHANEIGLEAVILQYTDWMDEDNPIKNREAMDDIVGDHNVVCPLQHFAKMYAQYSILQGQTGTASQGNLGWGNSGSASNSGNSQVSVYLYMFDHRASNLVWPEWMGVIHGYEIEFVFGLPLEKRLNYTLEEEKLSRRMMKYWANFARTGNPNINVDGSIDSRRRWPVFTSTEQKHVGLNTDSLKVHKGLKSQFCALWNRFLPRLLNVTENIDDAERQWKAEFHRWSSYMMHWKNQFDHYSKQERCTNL

[2] = biological target: T2, AChE (Electrophorus electricus); test: biochemical; details: inhibition constant against AChE; substrate ATCI at two concentrations
T2 construct: purchased Sigma Aldrich
T2 sequence (O42275 24-633): as above
Protocol: (§1) Kinetic characterization was performed using Dixon’s method. […] Assay medium contained DTNB solution 15 mM (40 µL), AChE solution 10 units/mL (50 µL), substrate solutions (10 µL) and various concentrations of tested compounds (20 µL). […] Results were computed and presented on the Lineweaver–Burk plot to determine the Ki value and to distinguish the type of enzyme inhibition.

[3] = system: T3, human AChE (Electrophorus electricus); test: biochemical; details: Lineweaver–Burk plots
T3 construct: purchased Sigma Aldrich
T3 sequence (O42275 24-633): as above
Protocol: as §1

## CC12CCC(c3c1nc1ccccc1c3NCCCCCNC(=O)c1cc3ccccc3oc1=O)C2(C)C (centres unmarked) [Compound 7a, 2-oxo-N-(5-((4,11,11-trimethyl-1,2,3,4-tetrahydro-1,4-methanoacridin-9-yl)amino)pentyl)-2H-chromene-3-carboxamide]
[1]
  Inhibition Ratio (%): 71.11 ± 0.94 ^d %

## COc1cc2cc(C(=O)NCCCCCNc3c4c(nc5ccccc35)C3(C)CCC4C3(C)C)c(=O)oc2cc1OC (centres unmarked) [Compound 7g, 6,7-dimethoxy-2-oxo-N-(5-((4,11,11-trimethyl-1,2,3,4-tetrahydro-1,4-methanoacridin-9-yl)amino)pentyl)-2H-chromene-3-carboxamide]
[1]
  Inhibition Ratio (%): 84.75 ± 1.27 ^bc %
[2]
  pKi: 6.82

## COc1cc2cc(C(=O)NCCCCCCCNc3c4c(nc5ccccc35)C3(C)CCC4C3(C)C)c(=O)oc2cc1OC (centres unmarked) [Compound 9g, 6,7-dimethoxy-2-oxo-N-(7-((4,11,11-trimethyl-1,2,3,4-tetrahydro-1,4-methanoacridin-9-yl)amino)heptyl)-2H-chromene-3-carboxamide]
[1]
  Inhibition Ratio (%): 35.49 ± 3.86 ^k %

## COc1ccc2oc(=O)c(C(=O)NCCCCCNc3c4c(nc5ccccc35)C3(C)CCC4C3(C)C)cc2c1 (centres unmarked) [Compound 7e, 6-methoxy-2-oxo-N-(5-((4,11,11-trimethyl-1,2,3,4-tetrahydro-1,4-methanoacridin-9-yl)amino)pentyl)-2H-chromene-3-carboxamide]
[1]
  Inhibition Ratio (%): 86.68 ± 2.18 ^b %
[2]
  pKi: 7.19

## CC12CCC(c3c1nc1ccccc1c3NCCCCCNC(=O)c1cc3cc(Br)ccc3oc1=O)C2(C)C (centres unmarked) [Compound 7c, 6-bromo-2-oxo-N-(5-((4,11,11-trimethyl-1,2,3,4-tetrahydro-1,4-methanoacridin-9-yl)amino)pentyl)-2H-chromene-3-carboxamide]
[1]
  Inhibition Ratio (%): 50.72 ± 2.98 ^h %

## COc1ccc2cc(C(=O)NCCCCCCCNc3c4c(nc5ccccc35)C3(C)CCC4C3(C)C)c(=O)oc2c1 (centres unmarked) [Compound 9f, 7-methoxy-2-oxo-N-(7-((4,11,11-trimethyl-1,2,3,4-tetrahydro-1,4-methanoacridin-9-yl)amino)heptyl)-2H-chromene-3-carboxamide]
[1]
  Inhibition Ratio (%): 56.11 ± 2.60 ^g %

## CC12CCC(c3c1nc1ccccc1c3NCCCCCCCNC(=O)c1cc3cc(OC(F)(F)F)ccc3oc1=O)C2(C)C (centres unmarked) [Compound 9d, 2-oxo-6-(trifluoromethoxy)-N-(7-((4,11,11-trimethyl-1,2,3,4-tetrahydro-1,4-methanoacridin-9-yl)amino)heptyl)-2H-chromene-3-carboxamide]
[1]
  Inhibition Ratio (%): 40.35 ± 2.45 ^j %

## COc1ccc2oc(=O)c(C(=O)NCCCCCCNc3c4c(nc5ccccc35)C3(C)CCC4C3(C)C)cc2c1 (centres unmarked) [Compound 8e, 6-methoxy-2-oxo-N-(6-((4,11,11-trimethyl-1,2,3,4-tetrahydro-1,4-methanoacridin-9-yl)amino)hexyl)-2H-chromene-3-carboxamide]
[1]
  Inhibition Ratio (%): 87.48% and 87.48 ± 0.27 ^b %
[2]
  pKi: 7.29
[3]
  type of enzyme inhibition: mixed-type inhibition; also recorded: mixed-type inhibitor

## Cc1ccc2oc(=O)c(C(=O)NCCCCCCNc3c4c(nc5ccccc35)C3(C)CCC4C3(C)C)cc2c1 (centres unmarked) [Compound 8b]
[1]
  Inhibition Ratio (%): 86.60% and 86.60 ± 2.13 ^b %
[2]
  pKi: 7.31
[3]
  type of enzyme inhibition: mixed-type inhibition; also recorded: mixed-type inhibitor

## COc1cc2cc(C(=O)NCCCCCCNc3c4c(nc5ccccc35)C3(C)CCC4C3(C)C)c(=O)oc2cc1OC (centres unmarked) [Compound 8g, 6,7-dimethoxy-2-oxo-N-(6-((4,11,11-trimethyl-1,2,3,4-tetrahydro-1,4-methanoacridin-9-yl)amino)hexyl)-2H-chromene-3-carboxamide]
[1]
  Inhibition Ratio (%): 62.74 ± 0.27 ^e %

## 7-bromo-2-oxo-N-(6-((4,11,11-trimethyl-1,2,3,4-tetrahydro-1,4-methanoacridin-9-yl)amino)hexyl)-2H-chromene-3-carboxamide [Compound 8c]
[1]
  Inhibition Ratio (%): 57.58 ± 3.30 ^fg %

## COc1ccc2cc(C(=O)NCCCCCCNc3c4c(nc5ccccc35)C3(C)CCC4C3(C)C)c(=O)oc2c1 (centres unmarked) [Compound 8f, 7-methoxy-2-oxo-N-(6-((4,11,11-trimethyl-1,2,3,4-tetrahydro-1,4-methanoacridin-9-yl)amino)hexyl)-2H-chromene-3-carboxamide]
[1]
  Inhibition Ratio (%): 62.44 ± 1.63 ^e %

## CC12CCC(c3c1nc1ccccc1c3NCCCCCCCNC(=O)c1cc3cc(Br)ccc3oc1=O)C2(C)C (centres unmarked) [Compound 9c, 6-bromo-2-oxo-N-(7-((4,11,11-trimethyl-1,2,3,4-tetrahydro-1,4-methanoacridin-9-yl)amino)heptyl)-2H-chromene-3-carboxamide]
[1]
  Inhibition Ratio (%): 44.05 ± 2.74 ^ij %

## COc1ccc2oc(=O)c(C(=O)NCCCCCCCNc3c4c(nc5ccccc35)C3(C)CCC4C3(C)C)cc2c1 (centres unmarked) [Compound 9e, 6-methoxy-2-oxo-N-(7-((4,11,11-trimethyl-1,2,3,4-tetrahydro-1,4-methanoacridin-9-yl)amino)heptyl)-2H-chromene-3-carboxamide]
[1]
  Inhibition Ratio (%): 62.15 ± 3.14 ^ef %

## CC12CCC(c3c1nc1ccccc1c3NCCCCCCCNC(=O)c1cc3ccccc3oc1=O)C2(C)C (centres unmarked) [Compound 9a, 2-oxo-N-(7-((4,11,11-trimethyl-1,2,3,4-tetrahydro-1,4-methanoacridin-9-yl)amino)heptyl)-2H-chromene-3-carboxamide]
[1]
  Inhibition Ratio (%): 40.65 ± 4.28 ^j %

## CC12CCC(c3c1nc1ccccc1c3NCCCCCCNC(=O)c1cc3ccccc3oc1=O)C2(C)C (centres unmarked) [Compound 8a, 2-oxo-N-(6-((4,11,11-trimethyl-1,2,3,4-tetrahydro-1,4-methanoacridin-9-yl)amino)hexyl)-2H-chromene-3-carboxamide]
[1]
  Inhibition Ratio (%): 66.57 ± 1.09 ^de %

## Cc1ccc2oc(=O)c(C(=O)NCCCCCNc3c4c(nc5ccccc35)C3(C)CCC4C3(C)C)cc2c1 (centres unmarked) [Compound 7b, 6-methyl-2-oxo-N-(5-((4,11,11-trimethyl-1,2,3,4-tetrahydro-1,4-methanoacridin-9-yl)amino)pentyl)-2H-chromene-3-carboxamide]
[1]
  Inhibition Ratio (%): 85.71 ± 1.66 ^bc %
[2]
  pKi: 6.72

## Cc1ccc2oc(=O)c(C(=O)NCCCCCCCNc3c4c(nc5ccccc35)C3(C)CCC4C3(C)C)cc2c1 (centres unmarked) [Compound 9b, 6-methyl-2-oxo-N-(7-((4,11,11-trimethyl-1,2,3,4-tetrahydro-1,4-methanoacridin-9-yl)amino)heptyl)-2H-chromene-3-carboxamide]
[1]
  Inhibition Ratio (%): 61.56 ± 4.65 ^ef %

## COc1ccc2cc(C(=O)NCCCCCNc3c4c(nc5ccccc35)C3(C)CCC4C3(C)C)c(=O)oc2c1 (centres unmarked) [Compound 7f, 7-methoxy-2-oxo-N-(5-((4,11,11-trimethyl-1,2,3,4-tetrahydro-1,4-methanoacridin-9-yl)amino)pentyl)-2H-chromene-3-carboxamide]
[1]
  Inhibition Ratio (%): 81.70 ± 4.82 ^c %
[2]
  pKi: 6.93

## CC12CCC(c3c1nc1ccccc1c3NCCCCCNC(=O)c1cc3cc(OC(F)(F)F)ccc3oc1=O)C2(C)C (centres unmarked) [Compound 7d, 2-oxo-6-(trifluoromethoxy)-N-(5-((4,11,11-trimethyl-1,2,3,4-tetrahydro-1,4-methanoacridin-9-yl)amino)pentyl)-2H-chromene-3-carboxamide]
[1]
  Inhibition Ratio (%): 47.51 ± 2.65 ^hi %

## 2-oxo-7-(trifluoromethoxy)-N-(6-((4,11,11-trimethyl-1,2,3,4-tetrahydro-1,4-methanoacridin-9-yl)amino)hexyl)-2H-chromene-3-carboxamide [Compound 8d]
[1]
  Inhibition Ratio (%): 62.92 ± 3.32 ^e %
